Measured values as given in patent publication US10441663B2, “Methods for treating cancer” (Bicycle Therapeutics Limited, priority 2016, dated 2019).
*1 amine or outer side, *2 acyl side, *3 side chain or, on linkers, in order; H or OH if unused. Where a SMILES comes first, the peptide text is derived from it. Bridges are numbered along the chain shown (N, C = ends). [ ]: non-standard residue; d: D form. The star is where a group is joined. X1 = COc1cc2cc(c1Cl)N(C)C(=O)C[C@H](OC(=O)[C@H](C)N(C)C(=O)CCSSC(C)CCC(=O)*)[C@]1(C)O[C@H]1[C@H](C)[C@@H]1C[C@@](O)(NC(=O)O1)[C@H](OC)/C=C/C=C(\C)C2; 1Nal = N[C@@H](Cc1cccc2ccccc12)C(=O)O; TBMB = c1c(C[*:1])cc(C[*:3])cc1C[*:2]; Tle = CC(C)(C)[C@H](N)C(=O)O; βAla = NCCC(=O)O; Sar = CNCC(=O)O

Test system: HT1080 xenograft
Assay: In vivo efficacy of BT1718 in HT1080 xenograft
Parameters: species or system Mus Musculus; key to Best response at 10 mg/kg: CR complete response; PR partial response
Experimental: The objective of this study was to evaluate the in vivo anti-tumor efficacy of BT1718in treatment of HT1080, NCI-H292, NCI-H1975, MDA-MB-231, HCC1806, RPMI2650, HCT-15, HT-29 and SNU-16 xenograft in BALB/c nude mice.
The HT1080, NCI-H292, NCI-H1975, MDA-MB-231, HCC1806, RPMI2650, HCT-15, HT-29 and SNU-16 tumor cells were maintained in vitro as a monolayer culture in medium supplemented with 10% heat inactivated fetal bovine serum at 37° C. in an […]. The tumor cells will be routinely subcultured twice weekly by trypsin-EDTA treatment. The cells growing in an exponential growth phase will be harvested and counted for tumor inoculation.
Mouse was inoculated subcutaneously at the right flank with tumor cells for tumor development. The animals were randomized and treatment was started when the average tumor reaches certain volume for the efficacy study, the inoculating cell amounts and starting tumor size were shown as below in Table 9. The test article administration and the animal numbers in each group were shown in the experimental design in Table 10.
All the procedures related to animal handling, care and the treatment in the study were performed according to the guidelines of the Association for Assessment and Accreditation of Laboratory Animal Care (AAALAC). At the time of routine monitoring, the animals were daily checked for any effects of tumor growth and treatments on normal behavior such as mobility, food and water consumption (by looking only), body weight gain/loss (body weights were measured every day), eye/hair matting and any other abnormal effect as stated in the protocol. Death and observed clinical signs were recorded on the basis of the numbers of animals within each subset.
The major endpoint was to see if the tumor growth could be delayed or mice could be cured. Tumor size was measured three times weekly in two dimensions using a caliper, and the volume was expressed in mm^3 using the formula: V=0.5 a×b^2 where a and b are the long and short diameters of the tumor, respectively. The tumor size was then used for calculations of T/C value. The T/C value (in percent) is an indication of antitumor effectiveness; T and C are the mean volumes of the treated and control groups, respectively, on a given day.
TGI was calculated for each group using the formula: TGI (%)=[1−(Ti−T0)/(Vi−V0)]×100; Ti is the average tumor volume of a treatment group on a given day, T0 is the average tumor volume of the treatment group on the day of treatment start, Vi is the average tumor volume of the vehicle control group on the same day with Ti, and V0 is the average tumor volume of the vehicle group on the day of treatment start.
Summary statistics, including mean and the standard error of the mean (SEM), are provided for the tumor volume of each group at each time point.
Statistical analysis of difference in tumor volume among the groups was conducted on the data obtained at the best therapeutic time point after the final dose.
A one-way ANOVA was performed to compare tumor volume among groups, and when a significant F-statistics (a ratio of treatment variance to the error variance) was obtained, comparisons between groups were carried out with Games-Howell test. All data were analyzed using Prism. P<0.05 was considered to be statistically significant.

COc1cc2cc(c1Cl)N(C)C(=O)C[C@H](OC(=O)[C@H](C)N(C)C(=O)CCSSC(C)CCC(=O)NCCC(=O)N(C)CC(=O)N(C)CC(=O)N(C)CC(=O)N(C)CC(=O)N(C)CC(=O)N(C)CC(=O)N(C)CC(=O)N(C)CC(=O)N(C)CC(=O)N(C)CC(=O)N[C@@H](C)C(=O)N[C@H]1CSCc3cc4cc(c3)CSC[C@H](NC(=O)[C@@H](C)NC(=O)[C@H](Cc3cccc5ccccc35)NC(=O)[C@H](CCC(=O)O)NC(=O)[C@H](CC(N)=O)NC(=O)[C@@H](C)NC1=O)C(=O)N[C@@H](CCC(=O)O)C(=O)N[C@@H](CC(=O)O)C(=O)N[C@@H](Cc1ccccc1)C(=O)N[C@@H](Cc1ccc(O)cc1)C(=O)N[C@@H](CC(=O)O)C(=O)N[C@@H](C(C)(C)C)C(=O)N[C@H](C(N)=O)CSC4)[C@]1(C)O[C@H]1[C@H](C)[C@@H]1C[C@@](O)(NC(=O)O1)[C@H](OC)/C=C/C=C(\C)C2 (stereo partly drawn) [BT1718] ({X1-βAla}-[Sar][Sar][Sar][Sar][Sar][Sar][Sar][Sar][Sar][Sar]AC[dA]NE[1Nal][dA]CEDFYD[Tle]C-NH2; linker 12-18-25 via TBMB (inferred))
animals with transient response on re-dosing (3 mg/kg biw): 1/3
animals that ultimately re-grew despite dosing (3 mg/kg biw re-dosing): 3/3
re-growth during dosing suspension (10 mg/kg biw, suspension period of 2 months): did not re-grow
response on re-dosing of the relapsed animal (10 mg/kg qw, re-growth in weeks 3-4 of re-dosing): transient response
Body Weight (1 mpk biw, day 0): 22.7 ± 0.5 g
Tumor Volume (1 mpk biw, day 0): 177 ± 6 mm^3
Body Weight (1 mpk biw, day 2): 22.2 ± 0.4 g
Tumor Volume (1 mpk biw, day 2): 265 ± 33 mm^3
Body Weight (1 mpk biw, day 4): 22.3 ± 0.2 g
Tumor Volume (1 mpk biw, day 4): 669 ± 107 mm^3
Body Weight (1 mpk biw, day 7): 22.2 ± 0.2 g
Tumor Volume (1 mpk biw, day 7): 1009 ± 156 mm^3
Body Weight (1 mpk biw, day 9): 21.5 ± 0.2 g
Tumor Volume (1 mpk biw, day 9): 1318 ± 146 mm^3
Body Weight (1 mpk biw, day 11): 20.1 ± 0.1 g
Tumor Volume (1 mpk biw, day 11): 1526 ± 160 mm^3
Body Weight (1 mpk biw, day 14): 19.4 ± 0.0 g
Tumor Volume (1 mpk biw, day 14): 1650 ± 218 mm^3
Body Weight (1 mpk qw, day 0): 22.5 ± 0.6 g
Tumor Volume (1 mpk qw, day 0): 178 ± 4 mm^3
Body Weight (1 mpk qw, day 2): 22.2 ± 0.5 g
Tumor Volume (1 mpk qw, day 2): 257 ± 26 mm^3
Body Weight (1 mpk qw, day 4): 22.6 ± 0.5 g
Tumor Volume (1 mpk qw, day 4): 627 ± 112 mm^3
Body Weight (1 mpk qw, day 7): 22.3 ± 0.3 g
Tumor Volume (1 mpk qw, day 7): 934 ± 176 mm^3
Body Weight (1 mpk qw, day 9): 22.2 ± 0.3 g
Tumor Volume (1 mpk qw, day 9): 1253 ± 182 mm^3
Body Weight (1 mpk qw, day 11): 20.5 ± 0.3 g
Tumor Volume (1 mpk qw, day 11): 1593 ± 251 mm^3
Body Weight (1 mpk qw, day 14): 19.6 ± 0.2 g
Tumor Volume (1 mpk qw, day 14): 1814 ± 320 mm^3
Body Weight (3 mpk biw, day 0): 23.1 ± 0.6 g
Tumor Volume (3 mpk biw, day 0): 178 ± 15 mm^3
Body Weight (3 mpk biw, day 2): 22.8 ± 0.9 g
Tumor Volume (3 mpk biw, day 2): 196 ± 16 mm^3
Body Weight (3 mpk biw, day 4): 22.5 ± 0.7 g
Tumor Volume (3 mpk biw, day 4): 100 ± 10 mm^3
Body Weight (3 mpk biw, day 7): 23.4 ± 0.8 g
Tumor Volume (3 mpk biw, day 7): 39 ± 8 mm^3
Body Weight (3 mpk biw, day 9): 24 ± 1.1 g
Tumor Volume (3 mpk biw, day 9): 18 ± 10 mm^3
Body Weight (3 mpk biw, day 11): 24.5 ± 0.9 g
Tumor Volume (3 mpk biw, day 11): 8 ± 8 mm^3
Body Weight (3 mpk biw, day 14): 24.7 ± 0.9 g
Tumor Volume (3 mpk biw, day 14): 3 ± 3 mm^3
Body Weight (3 mpk qw, day 0): 22.6 ± 0.3 g
Tumor Volume (3 mpk qw, day 0): 179 ± 18 mm^3
Body Weight (3 mpk qw, day 2): 21.4 ± 0.2 g
Tumor Volume (3 mpk qw, day 2): 191 ± 17 mm^3
Body Weight (3 mpk qw, day 4): 21.8 ± 0.8 g
Tumor Volume (3 mpk qw, day 4): 183 ± 90 mm^3
Body Weight (3 mpk qw, day 7): 22.0 ± 1.1 g
Tumor Volume (3 mpk qw, day 7): 218 ± 149 mm^3
Body Weight (3 mpk qw, day 9): 21.3 ± 0.7 g
Tumor Volume (3 mpk qw, day 9): 266 ± 142 mm^3
Body Weight (3 mpk qw, day 11): 21.4 ± 0.5 g
Tumor Volume (3 mpk qw, day 11): 254 ± 125 mm^3
Body Weight (3 mpk qw, day 14): 21.0 ± 0.6 g
Tumor Volume (3 mpk qw, day 14): 306 ± 119 mm^3
Body Weight (10 mpk biw, day 0): 22.5 ± 1.0 g
Tumor Volume (10 mpk biw, day 0): 180 ± 21 mm^3
Body Weight (10 mpk biw, day 2): 21.8 ± 1.2 g
Tumor Volume (10 mpk biw, day 2): 182 ± 41 mm^3
Body Weight (10 mpk biw, day 4): 21.8 ± 1.1 g
Tumor Volume (10 mpk biw, day 4): 58 ± 14 mm^3
Body Weight (10 mpk biw, day 7): 22.7 ± 0.9 g
Tumor Volume (10 mpk biw, day 7): 32 ± 7 mm^3
Body Weight (10 mpk biw, day 9): 22.1 ± 0.9 g
Tumor Volume (10 mpk biw, day 9): 27 ± 14 mm^3
Body Weight (10 mpk biw, day 11): 22 ± 1.1 g
Tumor Volume (10 mpk biw, day 11): 26 ± 13 mm^3
Body Weight (10 mpk biw, day 14): 22.6 ± 1.0 g
Tumor Volume (10 mpk biw, day 14): 20 ± 11 mm^3
Body Weight (10 mpk qw, day 0): 22.6 ± 1.2 g
Tumor Volume (10 mpk qw, day 0): 179 ± 14 mm^3
Body Weight (10 mpk qw, day 2): 21.1 ± 1.2 g
Tumor Volume (10 mpk qw, day 2): 146 ± 19 mm^3
Body Weight (10 mpk qw, day 4): 22.1 ± 1.2 g
Tumor Volume (10 mpk qw, day 4): 35 ± 4 mm^3
Body Weight (10 mpk qw, day 7): 23.2 ± 1.0 g
Tumor Volume (10 mpk qw, day 7): 25 ± 3 mm^3
Body Weight (10 mpk qw, day 9): 22.7 ± 1.1 g
Tumor Volume (10 mpk qw, day 9): 15 ± 8 mm^3
Body Weight (10 mpk qw, day 11): 23.8 ± 1.3 g
Tumor Volume (10 mpk qw, day 11): 5 ± 5 mm^3
Body Weight (10 mpk qw, day 14): 24.8 ± 1.5 g
Tumor Volume (10 mpk qw, day 14): 5 ± 5 mm^3
Best response at 10 mg/kg (HT1080, 10 mg/kg): CR
TGI (HT1080, 1 mpk, biw, day 14): 26.5%
Tumor Volume (HT1080, 1 mpk, biw, day 14): 1650 ± 218 mm^3
TGI (HT1080, 1 mpk, qw, day 14): 18.4%
Tumor Volume (HT1080, 1 mpk, qw, day 14): 1814 ± 320 mm^3
TGI (HT1080, 3 mpk, biw, day 14): 108.7%
Tumor Volume (HT1080, 3 mpk, biw, day 14): 3 ± 3 mm^3
TGI (HT1080, 3 mpk, qw, day 14): 93.7%
Tumor Volume (HT1080, 3 mpk, qw, day 14): 306 ± 119 mm^3
TGI (HT1080, 10 mpk, biw, day 14): 108.0%
Tumor Volume (HT1080, 10 mpk, biw, day 14): 20 ± 11 mm^3
TGI (HT1080, 10 mpk, qw, day 14): 108.7%
Tumor Volume (HT1080, 10 mpk, qw, day 14): 5 ± 5 mm^3
Minimally Effective Dose IV BIW (HT1080, dose leading to tumor-stasis): <3 mg/kg
tumor response (after 2 weeks, 3 mg/kg biw, 10 mg/kg qw and 10 mg/kg biw): completely regressed
animals with re-growth to 150 mm3 following cessation of dosing (previously 3 mg/kg biw): 3/3
animals with re-growth to 150 mm3 following cessation of dosing (previously 10 mg/kg qw): 1/3
